In US10758534B2 (Vertex Pharmaceuticals Incorporated, priority 2014, dated 2020) one finds EC30 data, which are given here for 27 molecules.

Structures are written as SMILES.

The target in this assay is T1, F508del (Homo sapiens, UniProt P13569, DEL508-508).
T1 construct: expressed in transfected cells
T1 sequence (P13569 with tags, fused parts or gaps DEL508-508): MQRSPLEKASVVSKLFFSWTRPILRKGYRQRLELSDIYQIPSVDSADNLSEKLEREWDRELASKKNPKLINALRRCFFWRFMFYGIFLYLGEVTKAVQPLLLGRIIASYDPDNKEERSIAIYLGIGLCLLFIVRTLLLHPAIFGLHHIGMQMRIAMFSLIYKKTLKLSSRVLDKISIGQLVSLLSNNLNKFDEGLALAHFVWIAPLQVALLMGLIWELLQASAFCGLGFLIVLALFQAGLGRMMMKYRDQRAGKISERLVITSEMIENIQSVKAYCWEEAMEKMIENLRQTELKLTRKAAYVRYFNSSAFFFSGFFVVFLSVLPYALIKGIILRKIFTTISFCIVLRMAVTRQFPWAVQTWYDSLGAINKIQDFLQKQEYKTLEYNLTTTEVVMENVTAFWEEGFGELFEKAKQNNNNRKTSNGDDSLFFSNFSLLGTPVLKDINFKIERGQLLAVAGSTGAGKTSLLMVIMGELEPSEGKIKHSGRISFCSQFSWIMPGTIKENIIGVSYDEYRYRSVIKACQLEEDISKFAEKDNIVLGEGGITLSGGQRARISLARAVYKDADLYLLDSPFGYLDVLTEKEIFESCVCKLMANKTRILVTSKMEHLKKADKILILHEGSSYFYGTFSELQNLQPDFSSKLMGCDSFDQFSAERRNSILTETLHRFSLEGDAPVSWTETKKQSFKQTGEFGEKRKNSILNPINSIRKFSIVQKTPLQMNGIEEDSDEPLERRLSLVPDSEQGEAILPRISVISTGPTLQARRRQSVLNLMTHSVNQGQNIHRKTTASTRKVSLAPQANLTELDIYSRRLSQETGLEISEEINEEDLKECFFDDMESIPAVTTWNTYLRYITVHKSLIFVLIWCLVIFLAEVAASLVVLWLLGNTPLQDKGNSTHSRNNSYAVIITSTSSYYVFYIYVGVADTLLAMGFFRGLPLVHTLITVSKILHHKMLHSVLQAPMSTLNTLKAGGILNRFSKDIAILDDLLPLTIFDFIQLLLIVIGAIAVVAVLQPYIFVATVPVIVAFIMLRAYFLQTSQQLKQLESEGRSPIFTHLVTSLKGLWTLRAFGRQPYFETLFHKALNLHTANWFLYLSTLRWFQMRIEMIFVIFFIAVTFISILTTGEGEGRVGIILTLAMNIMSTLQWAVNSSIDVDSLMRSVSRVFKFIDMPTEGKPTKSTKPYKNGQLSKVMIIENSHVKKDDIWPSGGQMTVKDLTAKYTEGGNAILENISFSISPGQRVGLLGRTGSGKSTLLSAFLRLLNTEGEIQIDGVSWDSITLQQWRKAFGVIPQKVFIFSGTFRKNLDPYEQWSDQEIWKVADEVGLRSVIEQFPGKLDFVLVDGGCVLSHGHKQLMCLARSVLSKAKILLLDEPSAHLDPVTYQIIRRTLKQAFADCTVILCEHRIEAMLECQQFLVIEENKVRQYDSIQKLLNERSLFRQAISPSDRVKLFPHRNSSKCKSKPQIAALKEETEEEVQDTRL
As to the kind of experiment: Protocol 1: membrane potential optical assay (FLIPR III, voltage sensing dye), identification of potentiator compounds. The conditions noted are these: Table 3, compounds of Table 1. It is filed as cell-based. The method in brief:
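NIH 3T3 fibroblasts stably expressing F508del were cultured at 27° C for 24 hrs for temperature correction, then treated with compounds or DMSO and loaded with a voltage-sensing redistribution dye. Forskolin added with a Cl⁻ gradient activated the channel; membrane-potential fluorescence on FLIPR III reported increased gating.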
As for `CC1CN(c2nc(C(C)(C)C)c(C3=CC(=O)CC(C)(C)C3)cc2C(=O)NS(=O)(=O)c2cccc(N)n2)C(C)(C)C1` (stereo not drawn) [Compound 1405, N-[(6-amino-2-pyridyl)sulfonyl]-6-tert-butyl-5-(5,5-dimethyl-3-oxo-cyclohexen-1-yl)-2-(2,2,4-trimethylpyrrolidin-1-yl)pyridine-3-carboxamide], the EC30 result is recorded as “+++ (“+++” means <3 uM)”.
Under `C[C@@H]1CN(c2ncc(Cl)cc2C(=O)NS(=O)(=O)c2cccc(N)n2)C(C)(C)C1` [Compound 1603, N-[(6-amino-2-pyridyl)sulfonyl]-5-chloro-2-[(4S)-2,2,4-trimethylpyrrolidin-1-yl]pyridine-3-carboxamide] stands “++ (“++” means between 3 uM and 10 uM)”.
Regarding `CC1CN(c2ncccc2C(=O)NS(=O)(=O)c2cccc(N3CCN(CC4OCCO4)CC3)n2)C(C)(C)C1` (stereo not drawn) [Compound 1937, N—[[6-[4-(1,3-dioxolan-2-ylmethyl)piperazin-1-yl]-2-pyridyl]sulfonyl]-2-(2,2,4-trimethylpyrrolidin-1-yl)pyridine-3-carboxamide], the EC30 result is “++ (“++” means between 3 uM and 10 uM)”.
Next, `CC(C)=C(C)c1ccc(C(=O)NS(=O)(=O)c2cccc(N)n2)c(N2C[C@@H](C)CC2(C)C)n1` [Compound 1510, N-[(6-amino-2-pyridyl)sulfonyl]-6-(1,2-dimethylprop-1-enyl)-2-[(4S)-2,2,4-trimethylpyrrolidin-1-yl]pyridine-3-carboxamide]: “+++ (“+++” means <3 uM)”; `CC1CN(c2nc(-c3cccc(NC(C)C)n3)ccc2C(=O)NS(=O)(=O)c2cccc(N)n2)C(C)(C)C1` (stereo not drawn) [Compound 951, N-[(6-amino-2-pyridyl)sulfonyl]-6-[6-(isopropylamino)-2-pyridyl]-2-(2,2,4-trimethylpyrrolidin-1-yl)pyridine-3-carboxamide]: “+++ (“+++” means <3 uM)”.
As for `CC(C)COc1cc(F)cc(-c2ccc(C(=O)NS(=O)(=O)c3cccc(N)n3)c(OC(C)C3CC3)n2)c1` (stereo not drawn) [Compound 1165, N-[(6-amino-2-pyridyl)sulfonyl]-2-(1-cyclopropylethoxy)-6-(3-fluoro-5-isobutoxy-phenyl)pyridine-3-carboxamide], the EC30 entry was “++ (“++” means between 3 uM and 10 uM)”.
With `Cc1cc(C)c(Oc2nc(C3CC(=O)CC(C)(C)C3)ccc2C(=O)NS(=O)(=O)c2cccc(N)n2)c(C)c1` (stereo not drawn) [Compound 1492, N-[(6-amino-2-pyridyl)sulfonyl]-6-(3,3-dimethyl-5-oxo-cyclohexyl)-2-(2,4,6-trimethylphenoxy)pyridine-3-carboxamide], the EC30 result is “++ (“++” means between 3 uM and 10 uM)”.
Next, `C#CC1CCCN(c2nc(-c3ccc(OC(C)C)nc3)ccc2C(=O)NS(=O)(=O)c2cccc(N)n2)C1` (stereo not drawn) [Compound 954, N-[(6-amino-2-pyridyl)sulfonyl]-2-(3-ethynyl-1-piperidyl)-6-(6-isopropoxy-3-pyridyl)pyridine-3-carboxamide]: “+++ (“+++” means <3 uM)”; `CC(C)COc1cc(F)cc(-c2ccc(C(=O)NS(=O)(=O)c3cccc(N)n3)c(C3=CC(C)(C)OC3(C)C)n2)c1` [Compound 1531, N-[(6-amino-2-pyridyl)sulfonyl]-6-(3-fluoro-5-isobutoxy-phenyl)-2-(2,2,5,5-tetramethyl-3-furyl)pyridine-3-carboxamide]: “++ (“++” means between 3 uM and 10 uM)”; `Cc1cc(C)c(Oc2nc(C3=CCC(C(C)C)CC3)ccc2C(=O)NS(=O)(=O)c2cccc(N)n2)c(C)c1` (stereo not drawn) [Compound 1630, N-[(6-amino-2-pyridyl)sulfonyl]-6-(4-isopropylcyclohexen-1-yl)-2-(2,4,6-trimethylphenoxy)pyridine-3-carboxamide]: “+++ (“+++” means <3 uM)”.
With `CCOc1cc(C)n(-c2ccc(C(=O)NS(=O)(=O)c3cccc(N)n3)c(N3C[C@@H](C)CC3(C)C)n2)n1` [Compound 1473, N-[(6-amino-2-pyridyl)sulfonyl]-6-(3-ethoxy-5-methyl-pyrazol-1-yl)-2-[(4S)-2,2,4-trimethylpyrrolidin-1-yl]pyridine-3-carboxamide], the EC30 result is given as “+++ (“+++” means <3 uM)”.
Consider `CC(C)Oc1ccc(-c2ccc(C(=O)NS(=O)(=O)c3cccc(N)n3)c(N(C)C3CCCC3)n2)cn1` [Compound 1025, N-[(6-amino-2-pyridyl)sulfonyl]-2-[cyclopentyl(methyl)amino]-6-(6-isopropoxy-3-pyridyl)pyridine-3-carboxamide], for which the EC30 entry was “+++ (“+++” means <3 uM)”.
Consider `CCOc1cccc2c1CN(Cc1c(C)cc(C)cc1C)[C@@]2(C)C(=O)NS(=O)(=O)c1cccc(N)n1` [Compound 1582, (1R)—N-[(6-amino-2-pyridyl)sulfonyl]-4-ethoxy-1-methyl-2-[(2,4,6-trimethylphenyl)methyl]isoindoline-1-carboxamide], for which the EC30 entry is reported as “+++ (“+++” means <3 uM)”.
For `CC(C)Cc1ccc(C(=O)NS(=O)(=O)c2cccc(N)n2)c(N2C[C@@H](C)CC2(C)C)n1` [Compound 1599, N-[(6-amino-2-pyridyl)sulfonyl]-6-isobutyl-2-[(4S)-2,2,4-trimethylpyrrolidin-1-yl]pyridine-3-carboxamide], the EC30 entry is recorded as “+++ (“+++” means <3 uM)”.
Next, `Cc1cc(C)c2c(c1)CCN2c1nc(-c2cc(F)cc(OCC(C)C)c2)ccc1C(=O)NS(=O)(=O)c1cccc(N)n1` [Compound 1572, N-[(6-amino-2-pyridyl)sulfonyl]-2-(5,7-dimethylindolin-1-yl)-6-(3-fluoro-5-isobutoxy-phenyl)pyridine-3-carboxamide]: “+++ (“+++” means <3 uM)”; `CCOc1cccc2c1CN(Cc1c(C)cc(C)cc1C)C2(C)C(=O)NS(=O)(=O)c1ccccc1N` (stereo not drawn) [Compound 1457, N-(2-aminophenyl)sulfonyl-4-ethoxy-1-methyl-2-[(2,4,6-trimethylphenyl)methyl]isoindoline-1-carboxamide]: “+++ (“+++” means <3 uM)”; `Cc1cc(C)c(Oc2nc(C3CCCCCC3)ccc2C(=O)NS(=O)(=O)c2cccc(N)n2)c(C)c1` [Compound 1376, N-[(6-amino-2-pyridyl)sulfonyl]-6-cycloheptyl-2-(2,4,6-trimethylphenoxy)pyridine-3-carboxamide]: “+++ (“+++” means <3 uM)”.
As for `CCOc1cccc2c1CN(Cc1c(C)cc(C)cc1C)C2(C)C(=O)NS(=O)(=O)c1ccncc1` (stereo not drawn) [Compound 1449, 4-ethoxy-1-methyl-N-(4-pyridylsulfonyl)-2-[(2,4,6-trimethylphenyl)methyl]isoindoline-1-carboxamide], the EC30 result is “+++ (“+++” means <3 uM)”.
Under `Cc1cc(C)c(Oc2nc(C3CC4CCC3(C)C4(C)C)ccc2C(=O)NS(=O)(=O)c2cccc(N)n2)c(C)c1` (stereo not drawn) [Compound 1650, N-[(6-amino-2-pyridyl)sulfonyl]-6-(1,7,7-trimethylnorbornan-2-yl)-2-(2,4,6-trimethylphenoxy)pyridine-3-carboxamide] stands “+++ (“+++” means <3 uM)”.
Next, `CC(C)COc1cc(F)cc(-c2nc(N3C[C@H](C)CC3(C)C)ccc2C(=O)NS(=O)(=O)c2cccc(N)n2)c1` [Compound 1385, N-[(6-amino-2-pyridyl)sulfonyl]-2-(3-fluoro-5-isobutoxy-phenyl)-6-[(4R)-2,2,4-trimethylpyrrolidin-1-yl]pyridine-3-carboxamide]: “+++ (“+++” means <3 uM)”; `Cc1cc(C)c(Oc2nc(C3=CC4CCC3C4)ccc2C(=O)NS(=O)(=O)c2cccc(N)n2)c(C)c1` (stereo not drawn) [Compound 1518, N-[(6-amino-2-pyridyl)sulfonyl]-6-(3-bicyclo[2.2.1]hept-2-enyl)-2-(2,4,6-trimethylphenoxy)pyridine-3-carboxamide]: “+++ (“+++” means <3 uM)”.
Under `C[C@@H]1CN(c2nc(-c3cccc(CO)c3)ccc2C(=O)NS(=O)(=O)c2cccnc2N)C(C)(C)C1` [Compound 1738, N-[(2-amino-3-pyridyl)sulfonyl]-6-[3-(hydroxymethyl)phenyl]-2-[(4S)-2,2,4-trimethylpyrrolidin-1-yl]pyridine-3-carboxamide] stands “+++ (“+++” means <3 uM)”.
Turning to `CC(C)COc1cc(F)cc(-c2ccc(C(=O)NS(=O)(=O)c3ccn[nH]3)c(N3CC(C)CC3(C)C)n2)c1` (stereo not drawn) [Compound 904, 6-(3-fluoro-5-isobutoxy-phenyl)-N-(1H-pyrazol-5-ylsulfonyl)-2-(2,2,4-trimethylpyrrolidin-1-yl)pyridine-3-carboxamide], the EC30 result is recorded as “+++ (“+++” means <3 uM)”.
Next, `CC(C)Oc1ccc(-c2ccc(C(=O)NS(=O)(=O)c3cccc(N)n3)c(N3CCC(C(F)(F)F)CC3)n2)cn1` [Compound 1043, N-[(6-amino-2-pyridyl)sulfonyl]-6-(6-isopropoxy-3-pyridyl)-2-[4-(trifluoromethyl)-1-piperidyl]pyridine-3-carboxamide]: “+++ (“+++” means <3 uM)”.
Next, `CCOc1cc(-c2ccc(C(=O)NS(=O)(=O)c3cccc(N)n3)c(N3C[C@@H](C)CC3(C)C)n2)cc(C)c1C` [Compound 1931, N-[(6-amino-2-pyridyl)sulfonyl]-6-(3-ethoxy-4,5-dimethyl-phenyl)-2-[(4S)-2,2,4-trimethylpyrrolidin-1-yl]pyridine-3-carboxamide]: “+++ (“+++” means <3 uM)”; `CC1CN(c2ncccc2C(=O)NS(=O)(=O)c2cccc(Oc3cccc(C(C)(C)C)c3)n2)C(C)(C)C1` (stereo not drawn) [Compound 1926, N—[[6-(3-tert-butylphenoxy)-2-pyridyl]sulfonyl]-2-(2,2,4-trimethylpyrrolidin-1-yl)pyridine-3-carboxamide]: “+++ (“+++” means <3 uM)”; `Cc1cc(C)c(Oc2nc(-c3cccc(F)c3F)ccc2C(=O)NS(=O)(=O)c2ccc[nH]c2=O)c(C)c1` [Compound 1296, 6-(2,3-difluorophenyl)-N-[(2-oxo-1H-pyridin-3-yl)sulfonyl]-2-(2,4,6-trimethylphenoxy)pyridine-3-carboxamide]: “+ (“+” means greater than 10 uM)”.
